Data as given in patent publication US20230265167A1, “COMPOSITIONS HAVING NEUROREGENERATIVE APPLICATIONS” (GRIFOLS WORLDWIDE OPERATIONS LIMITED, priority 2020, published 2023).
Entries after “also recorded” stand apart in the source; their conditions may differ. Structures can show the parent of a compound that is named as a salt.

Columns and labels:
SH-SY5Y cells = assay: Neurite outgrowth (differentiation) in SH-SY5Y cells, Tubulin Tracker imaging; format: cell-based, human; conditions: for neurite outgrowth or differentiation: FIG. 5
Description: Transferrin is utilized in cell culture and in-vivo to deliver iron as a nutrient to cells. This is typically accomplished through the actions of holo-transferrin (HoloTf) binding to, and endocytosis by, its cognate receptor CD71, the transferrin receptor 1 (TfR1). Transferrin is typically believed to provide cells with iron as a means to promote and sustain metabolic activity. […] Induction of neuronal differentiation was assessed by morphological parameters of neurite formation (a key element typically used as a marker of neuronal differentiation, neuronal health, and function) according to the procedures of Agholme, 2010. J. of Alzheimer's Disease. Vol. 20:1p 069-108; and Dyberg et al., 2017. PNAS Vol 114 (32), E6603-E6612.
Undifferentiated SH-SY5Y cells were seeded into 96 well clear bottom plates in media containing 0.1% FBS. A serum-free base media was utilized as recommended by the supplier for SH-SY5Y cells (Sigma, Cat #94030304-1VL). Twenty-four hours after seeding cells, a 3× stock solution of ApoTf, final concentrations indicated on the x-axis, in serum free base media was added to the cells. ApoTf was obtained and purified from pooled human plasma and dosed at a final concentration of 0.2 mg/mL.
Cells were allowed to differentiate for 6 days. Neurite growth was assessed by imaging and image analysis. At the time of analysis, a 10× solution of Tubulin Tracker (Molecular Probes, T34075) and Hoechst 33342 (Molecular Probes #H3570) nuclear stain was prepared.
Briefly, Tubulin Tracker dissolved in DMSO was diluted 1:1 with Pluronic F-127 and further diluted into HBSS to generate a 10× solution. Hoechst 33342 was added to the HBSS-Tubulin Tracker solution at 10 μg/mL to generate a 10× nuclear stain. The 10× staining solution (10 μL) was added directly to treated assay wells and incubated at 37° C. for 30 minutes. Following incubation, 110 μL of 0.4% Trypan Blue was added directly to assay wells and imaged on a Molecular Devices Nano imaging instrument. Nine images/well were acquired in the blue (Nuclei) and green (Tubulin) fluorescent channels for each image.
After obtaining images, the MetaExpress Neurite Outgrowth analysis module (Molecular Devices) was used to identify cells, cell bodies, and quantify neurites. The total number of neurite branches were divided by the total number of cells imaged to account for different numbers of cells in each test well. The Outgrowth Fold Change was determined by setting the untreated control cells to a value of 1 with all other treatments shown relative to untreated control.
Undifferentiated SH-SY5Y cells were seeded and treated as described in Example 1. Neurite growth was assessed by imaging and image analysis. At the time of analysis, a 10× solution of Tubulin Tracker (Molecular Probes, T34075) and Hoechst 33342 (Molecular Probes #H3570) nuclear stain was prepared. Briefly, Tubulin Tracker dissolved in DMSO was diluted 1:1 with Pluronic F-127 and further diluted into HBSS to generate a 10× solution. Hoechst 33342 was added to the HBSS-Tubulin Tracker solution at 10 μg/mL to generate at 10× nuclear stain. The 10× staining solution (10 μL) was added directly to treated assay wells and incubated at 37° C. for 30 minutes. Following incubation, 110 μL of 0.4% Trypan Blue was added directly to assay wells and imaged on a Molecular Devices Nano imaging instrument. Nine images/well were acquired in the blue (Nuclei) and green (Tubulin) fluorescent channels for each image. After obtaining images, the MetaExpress Neurite Outgrowth analysis module (Molecular Devices) was used to identify cell bodies and quantify neurites. The total number of neurite branches were divided by the total number of cells imaged to account for different numbers of cells. The Outgrowth Fold Change was determined by setting the untreated control to a value of 1 with all other treatments shown relative to untreated control. ApoTf was obtained and purified from pooled human plasma and dosed at a final concentration of 0.2 mg/mL. […]

HIF-1α = conditions: cited from earlier work
[1] = Iron saturation by ICP-AES; format: physicochemical
Source text: The skilled person will appreciate that transferrin iron saturation levels can be readily determined without undue burden by quantifying the total iron levels in a sample having a known transferrin concentration. The total iron levels in sample can be measured by any one of a number of methods know by those of skill in the art. Suitable examples include: • Colorimetric assays—Iron is quantitated by measuring the intensity of the violet complex formed in the reaction between ferrozine and Fe^2+ in acetate buffer at 562 nm. Thiourea or other chemicals can be added to complex contaminant metals such Cu^2+, which can also bind with ferrozine and yield falsely elevated iron values. See Ceriotti et al., Improved direct specific determination of serum iron and total iron-binding capacity Clin Chem. 1980, 26(2), 327-31, the contents of which are incorporated herein by reference. • Inductively Coupled Plasma Atomic Emission Spectroscopy (ICP-AES)—is an emission spectroscopy technique that quantifies the mass percentage of metals in a sample. ICP-AES is based on the excitation of metal atoms/ions in the sample using a plasma (an ionized gas consisting of positive ions and free electrons) and analyzing the emission wavelength of the electromagnetic radiation, which is typical of that particular metal. Even though the technique is a standard analytical technique within common general knowledge of the skilled person, further information on ICP-AES can be found in Manley et al., Simultaneous Cu-, Fe-, and Zn-specific detection of metalloproteins contained in rabbit plasma by size-exclusion chromatography-inductively coupled plasma atomic emission spectroscopy. J Biol Inorg Chem. 2009, 14, 61-74, the contents of which are incorporated herein by reference.
The preferred method of determining the iron content of a sample for the purposes of the therapeutic method of the present invention is ICP-AES. The iron saturation of transferrin is then calculated based on the transferrin protein concentration, total iron content of the sample, and the fact that wild type transferrin has two iron-binding sites. Wild type human transferrin (molecular weight 79,750) can bind two iron atoms such that a sample containing 1 g of transferrin would be 100% saturated by 1.4 mg of iron.
Protein purity was determined by SDS-PAGE. Iron saturation levels were determined using ICP-AES in accordance with the procedures outlined in Manley et al., J Biol Inorg Chem (2009) 14:61-74, the contents of which are incorporated herein by reference.

CC(=O)N(O)CCCCCNC(=O)CCC(=O)N(O)CCCCCNC(=O)CCC(=O)N(O)CCCCCN [DFO, Deferoxamine mesylate, reference compound]
neurite outgrowth / differentiation versus concentration (SH-SY5Y cells; FIG. 3A, DFO versus ApoTf): little neurite formation beyond that concentration

O=C(O)CNC(=O)c1c(O)c2ccccc2n(Cc2ccccc2)c1=O [IOX2, N-[[1,2-Dihydro-4-hydroxy-2-oxo-1-(phenylmethyl)-3-quinolinyl]carbonyl]glycine, reference compound]
concentration inducing up-regulation of HIF-1α (HIF-1α; undifferentiated SH-SY5Y): 1 µM | neurite outgrowth or differentiation (SH-SY5Y cells): no neurite outgrowth or differentiation was observed | neurite outgrowth or differentiation (SH-SY5Y cells; 4 μM): no effect was observable

C[C@@H](N)[C@H]1CC[C@H](C(=O)Nc2ccncc2)CC1.Cl.Cl [Y-27632, trans-4-[(1R)-1-Aminoethyl]-N-4-pyridinylcyclohexanecarboxamide dihydrochloride, reference compound]
neurogenic effect, alone (SH-SY5Y cells; FIG. 8, 50 μM): strongly neurogenic

ApoTransferrin A: ApoTf preparation, Grifols - prepared in house
Iron Saturation (%) [1]: 0.27%

ApoTransferrin B: ApoTf preparation, Grifols - prepared in house
Iron Saturation (%) [1]: 0.59%

ApoTransferrin C: ApoTf preparation, Grifols - prepared in house
Iron Saturation (%) [1]: 0.24%

HoloTransferrin: the iron-saturated form of transferrin, purified from pooled human plasma
Iron Saturation (%) [1]: 100% | HIF-1α production (HIF-1α; reported in US2016008437): can induce HIF-1α production | neurogenesis / differentiation of SH-SY5Y (SH-SY5Y cells; FIG. 4, proteins at 0.2 mg/mL, listed as HoloTf): unable to induce differentiation; also recorded: lack of neurogenesis

recombinant ApoTf: recombinant wild-type human transferrin, SEQ ID NO: 1, expressed in 293-6E cells
neurogenesis (neurite outgrowth) of SH-SY5Y (SH-SY5Y cells; FIG. 3B, proteins at 0.2 mg/mL): did induce neurogenesis
